# Where “and” joins values, the source holds several entries; their conditions need not be identical. Identical values can stand only once.
row,Structure (SMILES),melting point
1,"Cc1cc(C)n(CN(CCO)Cn2nc(C)cc2C)n1 [2-{bis[(3,5-dimethyl-1H-pyrazol-1-yl)methyl]amino}ethanol]",83 °C
2,"O=C1COc2cccnc2N1 [2h-pyrido[3,2-b]-1,4-oxazin-3(4h)-one]",206 °C
3,"O=c1cc(-c2ccc(O)c(O)c2)oc2ccccc12 [3',4'-dihydroxyflavone]",251 °C
4,"CC(=O)c1cc(F)cc(F)c1O [3',5'-difluoro-2'-hydroxyacetophenone]",107 °C
5,"CC(=O)c1cc(O)cc(O)c1 [3',5'-dihydroxyacetophenone]",144 °C
6,"CC(=O)c1cc(C)cc(C)c1 [3',5'-dimethylacetophenone]",20 °C
7,"COc1ccc([C@@H]2CC(=O)c3c(O)cc(O)cc3O2)cc1O [3',5,7-trihydroxy-4'-methoxyflavanone]",230 °C
8,Cc1ccc2oc(-c3cccc(O)c3)cc(=O)c2c1 [3'-hydroxy-6-methylflavone],205 °C
9,CC(=O)c1cccc(O)c1 [3'-hydroxyacetophenone],95 °C
10,O=C1CC(c2cccc(O)c2)Oc2ccccc21 (stereo not given) [3'-hydroxyflavanone],140 °C
11,O=C(O)c1ccc(-c2cccc([N+](=O)[O-])c2)cc1 [3'-nitrobiphenyl-4-carboxylic acid],314 °C
12,"Cc1cc(C)cc(-c2cc(C)cc(C)c2)c1 [3,3',5,5'-tetramethylbiphenyl]",48 °C
13,"COC1(OC)CCC2(C)C3CCC4(C)CCCC4(O)C3CCC2(C)C1 (stereo not given) [3,3-dimethoxy-5-methylandrostan-14-ol]",147 °C
14,"COC1(OC)CCC2(C)C(CCC3C4CCCC4(C)CCC32)C1 (stereo not given) [3,3-dimethoxyandrostane]",80 °C
15,"O=C1CCC2CCc3ccccc3C2O1 (stereo not given) [3,4,4a,5,6,10b-hexahydro-2H-benzo[h]chromen-2-one]",139 °C
16,"Brc1n[nH]c(Br)c1Br [3,4,5-tribromo-1h-pyrazole]",186 °C
17,"OB(O)c1cc(F)c(F)c(F)c1 [3,4,5-trifluorobenzeneboronic acid]",277 °C
18,"O=[N+]([O-])c1ccc(Cl)c(Cl)c1 [3,4-Dichloronitrobenzene]",41.3 °C
19,"COc1ccc(C(=O)O)cc1OC [3,4-Dimethoxybenzoic acid]",181 °C
20,"Brc1cscc1Br [3,4-dibromothiophene]",5 °C
21,"OB(O)c1ccc(Cl)c(Cl)c1 [3,4-dichlorobenzeneboronic acid]",272 °C
22,"O=C(O)c1ccc(Cl)c(Cl)c1 [3,4-dichlorobenzoic_acid]",208 °C
23,"FC(F)(F)c1ccc(Cl)c(Cl)c1 [3,4-dichlorobenzotrifluoride]",-12 °C

row,Structure (SMILES),melting point
1,"Cc1ccc(Cl)c(Cl)c1 [3,4-dichlorotoluene]",-15 °C
2,"O=C(O)c1ccc(F)c(F)c1 [3,4-difluorobenzoic acid]",123 °C
3,"O=C(O)c1ccc2c(c1)OCCCO2 [3,4-dihydro-2h-1,5-benzodioxepin-7-carboxylic acid]",148 °C
4,"O=Cc1ccc(O)c(O)c1 [3,4-dihydroxybenzaldehyde]",155 °C
5,"COc1c(OC)c(=O)c1=O [3,4-dimethoxy-3-cyclobutene-1,2-dione]",55 °C
6,"COc1ccc(/C=C/C(=O)c2ccccc2)cc1OC [3,4-dimethoxychalcone]",89 °C
7,"COc1ccc(O)cc1OC [3,4-dimethoxyphenol]",83 °C
8,"COc1ccc(CC#N)cc1OC [3,4-dimethoxyphenylacetonitrile]",64 °C
9,"COc1ccc(C)cc1OC [3,4-dimethoxytoluene]",27 °C
10,"Cc1ccc(C#N)cc1C [3,4-dimethylbenzonitrile]",66 °C
11,"Cc1ccc(S)c(S)c1 [3,4-toluenedithiol]",30 °C
12,"CC(C)(C)C1=CC(=O)C(=O)C(C(C)(C)C)=C1 [3,5-Di-tert-butyl-1,2-benzoquinone]",114 °C
13,"CC(C)(C)c1cc(C(=S)NC2CCCCC2)cc(C(C)(C)C)c1O [3,5-Di-tert-butyl-N-cyclohexyl-4-hydroxy-thiobenzamide]",228 °C
14,"OB(O)c1cc(C(F)(F)F)cc(C(F)(F)F)c1 [3,5-bis(trifluoromethyl)benzeneboronic acid]",222 °C
15,"CC(C)(C)c1cc(C#N)cc(C(C)(C)C)c1O [3,5-di-tert-butyl-4-hydroxybenzonitrile]",142 °C
16,"CC(C)(C)C1=CC(=O)C(=O)C(C(C)(C)C)=C1 [3,5-di-tert-butyl-o-benzoquinone]",115 °C
17,"COc1cc(Cl)cc(Cl)c1 [3,5-dichloroanisole]",41 °C
18,"NC(=O)c1cc(Cl)cc(Cl)c1 [3,5-dichlorobenzamide]",160 °C
19,"NC(=O)c1cc(F)cc(F)c1 [3,5-difluorobenzamide]",156 °C
20,"O=C(O)c1cc(F)cc(F)c1O [3,5-difluorosalicylic acid]",189 °C
21,"COc1cc(C=O)cc(OC)c1 [3,5-dimethoxybenzaldehyde]",47 °C
22,"Cc1cc(C)cc(C=O)c1 [3,5-dimethylbenzaldehyde]",9 °C
23,"O=C(Cl)c1cc([N+](=O)[O-])cc([N+](=O)[O-])c1 [3,5-dinitrobenzoyl chloride]",67 °C

row,Structure (SMILES),melting point
1,CC(=O)OC1CCC2C3CCC4CC(=C(C)C)CCC4(C)C3CCC12C (stereo not given) [3-(1-methylethylidene)androstan-17-yl acetate],108 °C
2,"CN1C(=O)c2ccccc2C1C=C(c1ccccc1)c1ccccc1 (stereo not given) [3-(2,2-Diphenylethenyl)-2-methylisoindolin-1-one]",147 °C
3,"C#CCOc1c(Cl)cccc1Cl [3-(2,6-dichlorophenoxy)-1-propyne]",44 °C
4,O=C(O)/C=C/c1cccc(B(O)O)c1 [3-(2-carboxyvinyl)benzeneboronic acid],218 °C
5,O=C(O)/C=C/c1ccco1 [3-(2-furyl)acrylic acid],142 °C
6,"COc1ccccc1OCC(O)CO (stereo not given) [3-(2-methoxyphenoxy)-1,2-propanediol]",81 °C
7,O=C(O)CCSc1ccc2ccccc2c1 [3-(2-naphthylthio)propionic acid],105 °C
8,"CN1C(=O)c2ccccc2C1C1=COCCC1 (stereo not given) [3-(3,4-Dihydro-2H-pyran-5-yl)-2-methylisoindolin-1-one]",95.5 °C
9,O=C(O)CCc1cccc(Br)c1 [3-(3-bromophenyl)propionic acid],64 °C
10,Oc1cccc(N2CCOCC2)c1 [3-(4-morpholinyl)phenol],130 °C
11,OB(O)c1cccc(CBr)c1 [3-(bromomethyl)benzeneboronic acid],215 °C
12,CCOC(=O)c1cccc(B(O)O)c1 [3-(ethoxycarbonyl)benzeneboronic acid],137 °C
13,O=S(=O)(c1ccccc1)c1ccsc1 [3-(phenylsulfonyl)thiophene],116 °C
14,CC(C)(C)[Si](C)(C)Oc1cccc(B(O)O)c1 [3-(tert-butyldimethylsiloxy)benzeneboronic acid],89 °C
15,O=C(O)/C=C/c1cccc(OC(F)(F)F)c1 [3-(trifluoromethoxy)cinnamic acid],94 °C
16,CC(=O)C1=C2C=CCC=C2N=C1 [3-Acetylindole],194 °C
17,"O=C1SCCN1C(=O)c1ccccc1 [3-Benzoyl-1,3-thiazolidin-2-one]",121 °C
18,O=C(O)c1cccc(Br)c1 [3-Bromobenzoic acid],157 °C
19,Cc1ccc(N)cc1Cl [3-Chloro-4-methylaniline],26 °C
20,Oc1cccc(Cl)c1 [3-Chlorophenol],33 °C and 32.6 °C
21,CC(=O)Nc1cccc(O)c1 [3-acetamidophenol],148 °C
22,CC(=O)Oc1cccc(-c2ccccc2)c1 [3-acetoxybiphenyl],34 °C
23,CC(=O)C1=CCC2(C)C(CCC3C4CCC(=O)C4(C)CCC32)C1 (stereo not given) [3-acetylandrost-2-en-17-one],153 °C

row,Structure (SMILES),melting point
1,CC(=O)c1cccc(B(O)O)c1 [3-acetylbenzeneboronic acid],203 °C
2,CC(N)CCc1ccccc1 (stereo not given) [3-amino-1-phenylbutane],-50 °C
3,"NC1=NN(c2ccccc2)CC1 [3-amino-4,5-dihydro-1-phenyl-1h-pyrazole]",169 °C
4,Nc1n[nH]cc1Br [3-amino-4-bromo-1h-pyrazole],136 °C
5,N#Cc1cccc(N)c1 [3-aminobenzonitrile],52 °C
6,Nc1cccc2c(=O)[nH][nH]c(=O)c12 [3-aminophthalhydrazide],328 °C
7,COc1ccc(C(=O)O)cc1OCc1ccccc1 [3-benzyloxy-4-methoxybenzoic acid],180 °C
8,O=C(O)C(CBr)CBr [3-bromo-2-(bromomethyl)propionic acid],100 °C
9,"CCOC1OC(C(N)=O)=CCC1Br (stereo not given) [3-bromo-2-ethoxy-3,4-dihydro-2H-pyran-6-carboxamidato]",142 °C
10,Cc1ccc(C(=O)O)cc1Br [3-bromo-4-methylbenzoic_acid],200 °C
11,NS(=O)(=O)c1cccc(Br)c1 [3-bromobenzenesulfonamide],156 °C
12,[O-][n+]1cccc(Br)c1 [3-bromopyridine n-oxide],35 °C
13,Brc1cccnc1 [3-bromopyridine],-27 °C
14,OB(O)c1ccnc(F)c1Cl [3-chloro-2-fluoropyridine-4-boronic acid],128 °C
15,Cc1c(Cl)cccc1C#N [3-chloro-2-methylbenzonitrile],22 °C
16,O=C(CCCl)c1ccc(F)cc1 [3-chloro-4'-fluoropropiophenone],48 °C
17,O=Cc1ccc(F)c(Cl)c1 [3-chloro-4-fluorobenzaldehyde],27 °C
18,O=Cc1ccc(O)c(Cl)c1 [3-chloro-4-hydroxybenzaldehyde],130 °C
19,N#Cc1ccc(O)c(Cl)c1 [3-chloro-4-hydroxybenzonitrile],148 °C
20,COc1cc(Cl)cc(B(O)O)c1 [3-chloro-5-methoxybenzeneboronic acid],187 °C
21,OB(O)c1cccc(Cl)c1 [3-chlorobenzeneboronic acid],183 °C
